Assay results published in patent US9610461B2, “Combination of a MC1R receptor agonist and UVB for the treatment and/or prevention of pigmentation disorders” (GALDERMA RESEARCH & DEVELOPMENT, priority 2012, dated 2017).

How the values were obtained:
mouse SKH2 [1] = assay: In vivo pro-pigmenting activity by topical route with NB-UVB, clinical score of pigmentation; settings: 8% topical on the back of SKH2 mice, 43 days, in combination with NB-UVB irradiation (60 mJ/cm2); versus irradiated group treated with the vehicle
Procedure: (§1) In mice, melanocytes are not present in the epidermis of hair-covered areas but are mainly present in the hair follicles. Pigmentation can be induced by irradiation with UVB in combination with topical or oral agents. The pigmentation changes can be quantified by various means such as clinical score pigmentation and pigmentation measurement by image analysis.
(§2) The evaluation of the MC1R receptor agonists pro-pigmenting activity in combination with NB-UVB irradiation (60 mJ/cm2) is performed by topical application on the back of the mouse SKH2 during 43 days with MC1R agonist compound A at 8% or MC1R agonist compound B at 8% in combination with NB-UVB radiation.
(§3) Practically, the animals were irradiated using the system Biospectra equipped NB-UVB lamps (peak emission maximum at 312 nm) irradiation at 3 times per week at 60 mJ/cm^2 on Monday, Wednesday and Friday. The treatment is carried out 5 days a week and 50 μl of the test product (compounds A or B) is diluted in the vehicle and applied on the back. In the case of associations with radiation, the compounds are administered after irradiation.
(§4) Then, the pigmentation changes is quantified by clinical score pigmentation and pigmentation measurement by image analysis.
The clinical score of animals is performed 1 time per week before irradiation. The pigmentation is evaluated with a score on a scale of 0 to 4. […]

mouse SKH2 [2] = assay: In vivo pro-pigmenting activity by topical route with NB-UVB, quantification of pigmentation by image analysis at the end of study; settings: 8% topical on the back of SKH2 mice, in combination with NB-UVB irradiation (60 mJ/cm2)
Procedure: as §1, §2, §3, §4
At the end of the study, for each animal, two digital photographs of the skin of the back are made with a high quality dermascope and digital camera such as the LiteScope™. […]

SMILES | pigmentation of the skin (clinical score of pigmentation, FIGS. 1 and 2) (mouse SKH2 [1]) | pigmentation level at the end of the study by image analysis (FIG. 3) (mouse SKH2 [2])
CCOC(=O)C1(C2CCCCC2)CCN(C(=O)[C@@H](Cc2ccc(OC)cc2)NC(=O)NCCc2c[nH]cn2)CC1 [Compound A, 4-Cyclohexyl-1-[(R)-2-{3-[2-(1H-imidazol-4-yl)-ethyl]-ureido}-3-(4-methoxy-phenyl)-propionyl]-piperidine-4-ethyl-carboxylate] | significantly increases the pigmentation of the skin | synergistic effect is confirmed
COc1ccc(C[C@@H](NC(=O)CCc2nc[nH]c2C)C(=O)N2CC(OCC3CC3)(c3ccccc3C)C2)cc1 [compound B, N—[(R)-2-(3-Cyclopropylmethoxy-3-o-tolyl-azetidin-1-yl)-1-(4-methoxy-benzyl)-2-oxo-ethyl]-3-(5-methyl-1H-imidazol-4-yl)-propionamide] | significantly increases the pigmentation of the skin | 
